Tested on: Cy5-mir302a-siRNA
Test: Encapsulation efficiency of LNPs for small RNAs (RiboGreen fluorescence)
Assay type: physicochemical
Details: Table 1 in words
Procedure: To produce the present composition, the present cationic lipids (compound 6 or 22), cholesterol, DEG-PEG 2000, and distearoylphosphatidylcholine (DSPC) were fully mixed in ethanol at a molar ratio of 50:38.5:1.5:10, and the total volume was brought to 500 μL, thereby producing a liquid formulation of lipid nanoparticles (LNPs). As for control group, D-lin-MC3-DMA (MC30), an ionizable amino lipid that conventionally used in LNPs preparation, was mixed with cholesterol, DEG-PEG 2000, and DSPC at the same molar ratio as the present LNPs. […]
The encapsulation ratio of liposomes for encapsulating miRNAs or siRNAs was determined by fluorescence reader (Infinite F200 Pro) with the aid of RNA quantification kit containing a fluorescent dye (RiboGreen). […] The cationic lipid-RNA complexes (typically with a total volume of 50 μL for each sample well) were then mixed with the reagent from the RNA quantification kit in each well. […] The amount of miRNAs or siRNAs were quantified by interpolating their […] at 535 nm to that of the standard curve, and the encapsulation efficiency (EE) was calculated by the following formula: […]
where Wt is the total amount of miRNAs or siRNAs released in the LNPs lysis suspension, and Wi is the total quantity of miRNAs or siRNAs added initially during preparation. […]

Compound	Liposome formation and siRNA encapsulation
CCCCC/C=C\C/C=C\CCCCCCCC(=O)NCC(=O)OC(COC(=O)CN)COC(=O)CN [Compound 6, 2-(2-((9Z,12Z)-octadeca-9,12-dienamido)acetoxy)propane-1,3-diyl bis(2-aminoacetate)]	successfully formed liposomes and encapsulated siRNAs therein
CCCCCC/C=C\CCCCCCCC(=O)NCC(=O)OCC(COC(=O)CN)OC(=O)CNC(=O)CCCCCCC/C=C\CCCCCC (centres unmarked) [Compound 22, (Z)-3-(2-aminoacetoxy)propane-1,2-diyl bis(2-((Z)-hexadec-9-enamido)acetate)]	successfully formed liposomes and encapsulated siRNAs therein

From patent US20240189235A1, “CATIONIC LIPIDS AND USES THEREOF” (MELLO BIOTECH TAIWAN CO., LTD., priority 2022, published 2024)
